In patent publication US12070445B2, “System and assay for monitoring production/release of membrane-lytic toxins in bacteria and compounds for modulating same” (priority 2021, dated 2024):
Entries after “also recorded” stand apart in the source; their conditions may differ. Where a SMILES comes first, the peptide text is derived from it. Bridges are numbered along the chain shown (N, C = ends).

Experiments:
S. aureus = S. aureus growth (OD600); assay type: cell-based
Protocol: (§1) Microtiter plate vesicle lysis assays. Portions of media (2 or 10 mL) were inoculated with individual bacterial colonies and allowed to shake overnight. From these overnight cultures, subcultures were prepared by diluting the cultures 1:50 (v/v) in fresh BHI for S. aureus or 1:100 (v/v) in fresh LB for P. aeruginosa. An aliquot of each subculture (178 μL) was added to 20 μL of vesicle suspension and 2 μL of compound solution (dissolved in DMSO at 100× working concentration) in a clear-bottomed, black 96-well microtiter plate (Corning 3904). For controls, DMSO (vehicle) or Triton X-100 (1% final concentration) was substituted for compound. Plate covers were coated with an aqueous solution of 0.05% Triton X-100 and 20% ethanol (Brewster, 2003) to prevent the accumulation of condensation. Plates were incubated in a Biotek Synergy 2 microplate reader running Gen5 1.05 software at 37° C. with shaking at the high-speed setting. Fluorescence (excitation 500 nm, emission 540 nm) and OD600 (absorbance at 600 nm) measurements were recorded every 15 minutes for 12 hours. All experiments were performed in technical triplicate in a single microtiter plate. Biological triplicates were then obtained over three days. GraphPad Prism software (v. 9) was used to generate curves and calculate standard error.
High-throughput screening and follow-up analysis protocols. Test compounds and positive control 1 were delivered in 2.5 nL aliquots of DMSO with an Echo 550 liquid handler (LabCyte Inc.) into black 384-well microtiter plates (Corning). All test compounds were tested at 10 μM; positive control 1 was tested at 250 nM. DMSO was used as a negative control. Overnight cultures (2 mL) of WT S. aureus (RN6390b) were grown at 37° C. with shaking at 200 rpm. These cultures were diluted 1:500 (v/v) in fresh BHI medium, at which point vesicle solutions were added to a final concentration of 1 mM phospholipid (as determined by ^31P NMR analyses). This vesicle-cell mixture was then added to the 384-well microtiter plates with a Multidrop 384 liquid-dispensing robot (Thermo Scientific) for a total volume of 50 μL per well. Plates were incubated statically for ˜24 hr at 37° C., at which point fluorescence (excitation 483, emission 530) and OD600 (absorbance at 600 nm) measurements were made using a CLARIOstarR Plus microtiter plate reader (BMG Labtech) running MARS data analysis software. Scatter plots were generated using the Collaborative Drug Discovery Vault informatics platform. […] Fluorescence (excitation 510, emission 544) and OD600 measurements were acquired with a PerkinElmer EnVision microtiter plate reader running Envision Manager software. […]

WT S. aureus (RN6390b) = test: Microtiter plate (96-well) vesicle lysis assay with WT S. aureus; assay type: cell-based
Protocol: (§2) Compound handling and preparation. OdDHL and BHL (Hodgkinson et al., 2011), S. aureus AIP and peptide derivatives 1-5 (Tal-Gan et al., 2013, Tal-Gan et al., 2016, Vasquez and Blackwell, 2019), and compounds 7-9 (Welsh and Blackwell, 2016a, Boursier et al., 2018, Manson et al., 2020) were synthesized using previously described methods. PQS and compound 6 were purchased from Millipore Sigma and AK Scientific respectively. Compounds were stored dry at −20° C. until needed and then dissolved in DMSO. DMSO stock solutions were prepared at concentrations that varied with compound potency and apparent solubility. Final in-well compound concentrations for 96-well vesicle lysis assays, unless noted otherwise, were: 10 μM for AIP, OdDHL, and PQS; 1 mM for BHL; 100 nM for 1-4; 10 μM for 5; 20 μM for 6; 100 μM for 7 and 8; and 200 μM for 9.
(§3) Production of phospholipid vesicles with encapsulated calcein. Large unilamellar vesicles (LUVs) were produced by adapting a freeze-thaw and vesicle extrusion procedure (Mayer et al., 1986). Briefly, stock solutions of phospholipids (DOPC, DPPC, DPPE, or cholesterol) in chloroform were mixed to the desired lipid compositions (70 mol % DOPC/30 mol % cholesterol for S. aureus vesicles or 68 mol % DPPC, 30 mol % cholesterol, 2 mol % DPPE for P. aeruginosa vesicles), and the chloroform was removed using an N2 stream or rotary evaporation followed by drying for at least one hour under vacuum. Self-quenching solutions of calcein were prepared by combining calcein and PBS or a specially prepared calcein buffer (1 mM EDTA, 10 mM Trisbase, and 100 mM NaCl; pH 8) to a calcein concentration of […]. The resulting solutions were titrated with 10 M aqueous NaOH until all calcein was dissolved and the solution reached pH 7.4 or pH 8 for PBS and the calcein buffer, respectively. The resulting calcein solutions were added to the dried phospholipid films (PBS for S. aureus formulations and the calcein buffer for the P. aeruginosa formulations) for a final lipid concentration of 5 mg/mL. The resulting lipid solutions were vortexed vigorously and briefly sonicated in a bath sonicator to form a turbid vesicle suspension. The vesicle suspensions were then freeze-thawed five times by alternately immersing them into an iPrOH/dry ice bath and a warm water bath (˜60° C.). Vesicles prepared for continuous time-course experiments were passed at least 5 times through a 100 nm polycarbonate filter using a Mini-prep extruder. Vesicles prepared for the high-throughput screen were passed through the filter 3 times. The resulting vesicles were then separated from external, unloaded calcein using a hand-packed Sephadex-G50 size exclusion chromatography column. The concentration of phospholipid in the solution was quantified using ^31P NMR (per the above protocol), and the phospholipid concentration was adjusted to 2 mM for unsaturated lipid solutions and 1 mM for saturated lipid solutions in their respective buffers. The resulting vesicles were characterized by dynamic light scattering and found to have a hydrodynamic diameter of ˜150 nm (FIGS. 3A-3C), which agrees with previous reports describing vesicle production using a similar method (Lapinski et al., 2007).
Microtiter plate vesicle lysis assays. Portions of media (2 or 10 mL) were inoculated with individual bacterial colonies and allowed to shake overnight. From these overnight cultures, subcultures were prepared by diluting the cultures 1:50 (v/v) in fresh BHI for S. aureus or 1:100 (v/v) in fresh LB for P. aeruginosa. An aliquot of each subculture (178 μL) was added to 20 μL of vesicle suspension and 2 μL of compound solution (dissolved in DMSO at 100× working concentration) in a clear-bottomed, black 96-well microtiter plate (Corning 3904). For controls, DMSO (vehicle) or Triton X-100 (1% final concentration) was substituted for compound. […]

[1] = tested on: WT P. aeruginosa (PAO1-PGSC); test: Microtiter plate (96-well) vesicle lysis assay with WT P. aeruginosa; assay type: cell-based
Protocol: as §2, §3
Microtiter plate vesicle lysis assays. Portions of media (2 or 10 mL) were inoculated with individual bacterial colonies and allowed to shake overnight. […]

P. aeruginosa = P. aeruginosa growth (OD600); assay type: cell-based; details: P. aeruginosa WT and QS mutant with vesicles, 12 hr
Protocol: as §1

[2] = Solubility in DMSO and aqueous solutions
agr = agr YFP transcriptional reporter assay (S. aureus AH1677 with pDB59); assay type: cell-based
Protocol: Bacterial strains and culture. All bacteria were grown at 37° C. with 200 rpm shaking unless otherwise specified. S. aureus and P. aeruginosa were grown in BHI medium and LB medium, respectively. S. aureus AH1677 (with an agr-YFP reporter plasmid) and P. aeruginosa PAO1-PGSC (with a plasI-LVAgfp reporter plasmid) were used as QS transcriptional reporters and grown with 10 μg/mL chloramphenicol and 300 μg/mL carbenicillin, respectively. All other strains were grown without supplemental antibiotic. S. aureus RN6390b and P. aeruginosa PAO1-PGSC were used as WT strains in vesicle lysis experiments, while S. aureus RN9222 and P. aeruginosa PAO-JG35 were used as QS mutants. RN9222 was grown without antibiotic as it was not used as a reporter strain (i.e., it served only as QS mutant).
High-throughput screening and follow-up analysis protocols. Test compounds and positive control 1 were delivered in 2.5 nL aliquots of DMSO with an Echo 550 liquid handler (LabCyte Inc.) into black 384-well microtiter plates (Corning). All test compounds were tested at 10 μM; positive control 1 was tested at 250 nM. DMSO was used as a negative control. Overnight cultures (2 mL) of WT S. aureus (RN6390b) were grown at 37° C. with shaking at 200 rpm. These cultures were diluted 1:500 (v/v) in fresh BHI medium, at which point vesicle solutions were added to a final concentration of 1 mM phospholipid (as determined by ^31P NMR analyses). This vesicle-cell mixture was then added to the 384-well microtiter plates with a Multidrop 384 liquid-dispensing robot (Thermo Scientific) for a total volume of 50 μL per well. Plates were incubated statically for ˜24 hr at 37° C., at which point fluorescence (excitation 483, emission 530) and OD600 (absorbance at 600 nm) measurements were made using a CLARIOstarR Plus microtiter plate reader (BMG Labtech) running MARS data analysis software. Scatter plots were generated using the Collaborative Drug Discovery Vault informatics platform. The dose-response experiment using the vesicle lysis assay was performed in a 384-well plate in technical duplicate with compound concentrations of 0.1, 0.25, 0.5, 1, 2.5, 5, 10, and 20 μM. Dose-response curves were generated using variable slope (4 parameter) non-linear regression analysis for compound inhibition using GraphPad Prism software (v. 9). Analysis of the QS modulatory activity of the HTS hits and 6 (savirin) was performed using the S. aureus YFP transcriptional reporter strain. HTS hits were purchased directly from Life Chemicals, Inc. DMSO stock solutions (10 mM) of each compound were prepared and stored at −20° C. Serial dilutions (1:3) were prepared from the stock solutions in DMSO, and 2 μL aliquots of the resulting dilutions were added to the wells of black 96-well microtiter plates (Corning). Overnight cultures of the S. aureus reporter strain (2 mL) were grown at 37° C. with shaking at 200 rpm. Cultures were diluted 1:50 (v/v) into fresh BHI medium, and 198 μL of this diluted culture were added to each well containing compound, for a total volume of 200 μL per well. All plates contained a vehicle control consisting of 2 μL of DMSO and 198 μL of culture and a media control consisting of 200 μL BHI. Plates were incubated for ˜24 hours at 37° C. with shaking at 200 rpm. Fluorescence (excitation 510, emission 544) and OD600 measurements were acquired with a PerkinElmer EnVision microtiter plate reader running Envision Manager software. Background fluorescence from BHI control was subtracted from raw fluorescence reads, OD600 corrected, and finally normalized to vehicle control. Dose-response curves and IC50 values were generated using 3-parameter non-linear regression analysis for compound inhibition using GraphPad Prism software (v. 9). All compounds were tested in technical triplicate with at least 3 biological replicates.

CC[C@H](C)[C@H](N)C(=O)N[C@@H](CC(N)=O)C(=O)N[C@H]1CSC(=O)[C@H](CC(C)C)NC(=O)[C@H](CC(C)C)NC(=O)[C@H](Cc2ccccc2)NC(=O)[C@H](C)NC1=O [Compound 1, AIP III D4A] (H-INCAFLL; thioester 3-C)
impact on cell growth (S. aureus; S. aureus WT and QS mutant with vesicles, 12 hr): minimal impact on cell growth
effect on vesicle lysis (calcein fluorescence over 12 hr) (WT S. aureus (RN6390b); 100 nM 1, 10 μM 5, 20 μM 6, 10 μM AIP): wholly abrogated vesicle lysis; also recorded: repress vesicle lysis
effect of increasing concentration on onset of calcein leakage (WT S. aureus (RN6390b); 3-fold dilutions starting at 100 nM): increases in the times required for the onset of calcein leakage
calcein leakage with agr inhibitors at equivalent concentration (WT S. aureus (RN6390b); all compounds at 100 nM, 12 hr): completely prevent calcein leakage

CCCCCCCCCC(=O)CC(=O)Nc1ccccc1 [Compound 7, V-06-018]
delay of vesicle lysis relative to vehicle controls ([1]; 100 μM 7 and 8): approximately two
delay of the onset of vesicle lysis ([1]; 100 μM 7 and 8, FIG. 7C): approximately 2 hr
effect on bacterial growth (P. aeruginosa): inhibit growth mildly at later time points

O=C(Nc1nc2c(s1)CN(C(=O)Nc1cccc(Cl)c1)CC2)c1ccsc1 [Compound 11, N-(3-chlorophenyl)-2-(thiophene-3-carboxamido)-6,7-dihydrothiazolo[5,4-c]pyridine-5(4H)-carboxamide]
inhibition of cellular growth (S. aureus; S. aureus, HTS hits): do not inhibit cellular growth
solubility in DMSO and aqueous solutions [2]: readily soluble
agr inhibition in agr transcriptional reporter assay (agr; S. aureus agr YFP reporter): near maximal agr inhibitors
IC50 (agr; Staphylococcus aureus, 24 h, read-out: IC50 in the agr reporter assay): 700 nM
